US20230355597A1, “COMPOUNDS, COMPOSITIONS, AND METHODS FOR THE TREATMENT AND PREVENTION OF AVIAN PATHOGENIC E. COLI (APEC)” (OHIO STATE INNOVATION FOUNDATION, priority 2018, published 2023)
Marks after values point to notes of the source that are not given here.

Key:
APEC O15 = assay type: cell-based, avian pathogenic Escherichia coli (APEC); conditions: APEC O15, M63 media; MIC/MBC
[1] = system: intracellular APEC O78 in Caco-2 cells; test: Intracellular survival assay (cidal SMs); conditions: O78, Caco-2, 6 h treatment; superscript = multiple of MIC
[2] = system: intracellular APEC O2 in Caco-2 cells; test: Intracellular survival assay (cidal SMs); conditions: O2, Caco-2, 6 h treatment; superscript = multiple of MIC
[3] = system: intracellular APEC O78, O2, and O1 in infected Caco-2, HD11, and THP1 cells; test: Intracellular survival assay (cidal SMs), summary over serotypes and cells; conditions: overall ranking
APEC O1-63 = assay type: cell-based, avian pathogenic Escherichia coli (APEC); conditions: APEC O1-63, M63 media; MIC/MBC
APEC O78 [4] = test: Confocal microscopy bacterial cytological profiling; assay type: cell-based, avian pathogenic Escherichia coli (APEC); conditions: 2X MBC
Description: Confocal and scanning electron microscopy. Confocal microscopy was used for bacterial cytological profiling (BCP) to identify the cellular pathways targeted by SMs as described previously. […] After incubation, treated cultures were centrifuged, washed, and resuspended in 100 μL PBS. […] Cultures were then centrifuged, washed, and resuspended in PBS to 1⁄10th volume of the original cultures.

APEC O2-211 = assay type: cell-based, avian pathogenic Escherichia coli (APEC); conditions: APEC O2-211, M63 media; MIC/MBC
APEC O109 = assay type: cell-based, avian pathogenic Escherichia coli (APEC); conditions: APEC O109, M63 media; MIC/MBC
APEC O115 = assay type: cell-based, avian pathogenic Escherichia coli (APEC); conditions: APEC O115, M63 media; MIC/MBC
[5] = system: intracellular APEC O78 in THP-1 cells; test: Intracellular survival assay (cidal SMs); conditions: O78, THP-1, 6 h treatment; superscript = multiple of MIC
APEC O78-53 = assay type: cell-based, avian pathogenic Escherichia coli (APEC); conditions: APEC O78-53, M63 media; MIC/MBC
APEC O78 [6] = test: Loss of 260/280 nm absorbing materials assay; assay type: cell-based, avian pathogenic Escherichia coli (APEC); conditions: 2X MBC, 1 h, *P<0.05 vs DMSO
APEC O1 = assay type: cell-based, avian pathogenic Escherichia coli (APEC); conditions: APEC O1, M63 media; MIC/MBC
APEC O8 = assay type: cell-based, avian pathogenic Escherichia coli (APEC); conditions: APEC O8, M63 media; MIC/MBC
APEC O35 = assay type: cell-based, avian pathogenic Escherichia coli (APEC); conditions: APEC O35, M63 media; MIC/MBC
[7] = system: intracellular APEC O2 in HD11 cells; test: Intracellular survival assay (cidal SMs); conditions: O2, HD11, 6 h treatment; superscript = multiple of MIC
[8] = system: intracellular APEC O1 in Caco-2 cells; test: Intracellular survival assay (cidal SMs); conditions: O1, Caco-2, 6 h treatment; superscript = multiple of MIC
APEC O18 = assay type: cell-based, avian pathogenic Escherichia coli (APEC); conditions: APEC O18, M63 media; MIC/MBC
[9] = system: intracellular APEC O2 in THP-1 cells; test: Intracellular survival assay (cidal SMs); conditions: O2, THP-1, 6 h treatment; superscript = multiple of MIC
Rif^r APEC O78 = test: In vivo efficacy of growth inhibitors in APEC infected broiler chickens
APEC O78 [10] = assay type: cell-based, avian pathogenic Escherichia coli (APEC); conditions: APEC O78, M63 media
[11] = system: intracellular APEC O1 in THP-1 cells; test: Intracellular survival assay (cidal SMs); conditions: O1, THP-1, 6 h treatment; superscript = multiple of MIC
[12] = system: intracellular APEC O1 in HD11 cells; test: Intracellular survival assay (cidal SMs); conditions: O1, HD11, 6 h treatment; superscript = multiple of MIC
[13] = system: biofilm embedded APEC O78; test: MBEC High-throughput assay; assay type: cell-based, avian pathogenic Escherichia coli (APEC); conditions: biofilm embedded APEC O78; superscript = multiple of MIC (footnote)
[14] = system: intracellular APEC O78 in HD11 cells; test: Intracellular survival assay (cidal SMs); conditions: O78, HD11, 6 h treatment; superscript = multiple of MIC
APEC O2 = assay type: cell-based, avian pathogenic Escherichia coli (APEC); conditions: APEC O2, M63 media; MIC/MBC

CCN1C(=Cc2ccc3ccccc3[n+]2CC)C=Cc2ccccc21.[Cl-] [SM9]
MBC (APEC O15): 100 µM
MIC (APEC O15): 25 µM
SMs intracellular APEC clearance concentration [1]: 50^b µM
SMs intracellular APEC clearance concentration [2]: 100^c µM
effectiveness in clearing intracellular APEC serotypes in all tested cells [3]: most effective
MBC (APEC O1-63): 100 µM
MIC (APEC O1-63): 50 µM
cytological profile (confocal, FM4-64 / SYTO-9) (APEC O78 [4]): PG synthesis inhibitors
MBC (APEC O2-211): 25 µM
MIC (APEC O2-211): 25 µM
MBC (APEC O109): 50 µM
MIC (APEC O109): 25 µM
MBC (APEC O115): 50 µM
MIC (APEC O115): 25 µM
SMs intracellular APEC clearance concentration [5]: 50^b µM
MBC (APEC O78-53): 25 µM
MIC (APEC O78-53): 25 µM
Absorbance 260 (APEC O78 [6]; 260 nm absorbing material in supernatant): 3.99*
Absorbance 280 (APEC O78 [6]; 280 nm absorbing material in supernatant): 2.78*
MBC (APEC O1): 50 µM
MIC (APEC O1): 25 µM
MBC (APEC O8): 50 µM
MIC (APEC O8): 25 µM
MBC (APEC O35): 50 µM
MIC (APEC O35): 25 µM
SMs intracellular APEC clearance concentration [7]: 100^c µM
SMs intracellular APEC clearance concentration [8]: 100^c µM
MBC (APEC O18): 100 µM
MIC (APEC O18): 25 µM
SMs intracellular APEC clearance concentration [9]: 50^b µM
reduction of average APEC load in internal organs (Rif^r APEC O78; average of liver, heart, lung and kidney, vs untreated control): either exacerbated or did not reduce
reduction of APEC induced mortality (Rif^r APEC O78; oral gavage twice a day, 5 days, untreated mortality (58.34%) normalized to 100%): 42.86%
reduction of APEC lesions severity (%), Air-sacs (airsacculitis) (Rif^r APEC O78; untreated control = 100%): -88.2%
reduction of APEC lesions severity (%), Heart (pericarditis) (Rif^r APEC O78; untreated control = 100%): -60%
reduction of APEC lesions severity (%), Liver (perihepatitis) (Rif^r APEC O78; untreated control = 100%): -50%
reduction of APEC lesions severity (%), Lung (lung congestion) (Rif^r APEC O78; untreated control = 100%): -16.7%
reduction of APEC load, Heart (Rif^r APEC O78; vs untreated control): -0.5 log CFU/g of tissues
reduction of APEC load, Kidney (Rif^r APEC O78; vs untreated control): -0.2 log CFU/g of tissues
reduction of APEC load, Liver (Rif^r APEC O78; vs untreated control): -0.1 log CFU/g of tissues
reduction of APEC load, Lung (Rif^r APEC O78; vs untreated control): -0.9 log CFU/g of tissues
Body weight gain (BWG) (Rif^r APEC O78; weight of live chickens before necropsy minus weight before treatment): 214.93±31.88
MIC (APEC O78 [10]; MIC/MBC): 25 µM
MBC (APEC O78 [10]; cell prints MIC/MBC): 50 µM
SMs intracellular APEC clearance concentration [11]: 50^b µM
SMs intracellular APEC clearance concentration [12]: 100^c µM
MBEC [13]: 50^b µM
SMs intracellular APEC clearance concentration [14]: 100^c µM
MBC (APEC O2): 50 µM
MIC (APEC O2): 25 µM
